pEC50, pIC50: −log10 of the molar value.
What was measured:
rat hepatocytes = assay: Glucose production inhibition and fructose 1,6-bisphosphate accumulation in rat hepatocytes; format: cell-based
Procedure: Hepatocytes were prepared from overnight fasted Sprague-Dawley rats (250-300 g) according to the procedure of Berry and Friend (Berry, M. N., Friend, D. S., 1969, J. Cell. Biol. 43, 506-520) as modified by Groen (Groen, A. K., Sips, H. J., Vervoorn, R. C., Tager, J. M., 1982, Eur. J. Biochem. 122, 87-93). Hepatocytes (75 mg wet weight/mL) were incubated in 1 ml Krebs-bicarbonate buffer containing 10 mM Lactate, 1 mM pyruvate, 1 mg/mL BSA, and test compound concentrations from 1 to 500 μM. Incubations were carried out in a 95% oxygen, 5% carbon dioxide atmosphere in closed, 50-mL Falcon tubes submerged in a rapidly shaking water bath (37° C.). After 1 hour, an aliquot (0.25 mL) was removed, transferred to an Eppendorf tube and centrifuged. 50 μL of supernatant was then assayed for glucose content using a Sigma Glucose Oxidase kit as per the manufacturer's instructions.
Isolated rat hepatocytes were prepared as described in Example D and incubated under the identical conditions described. […] After thorough mixing and centrifugation, the supernatant was analyzed for glucose content as described in Example D, and also for fructose 1,6-bisphosphate. Fructose 1,6-bisphosphate was assayed spectrophotometrically by coupling its enzymatic conversion to glycerol 3-phosphate to the oxidation of NADH, which was monitored at 340 nm. […]

[1] = Analysis of drug levels and liver accumulation in rats; format: in vivo; conditions: rat, 20 mg/kg intraperitoneally, one hour post injection
Procedure: Sprague-Dawley rats (250-300 g) were fasted for […] and then dosed intraperitoneally either with saline (n=3) or 20 mgs/kg of FBPase inhibitor (n=4). The vehicle used for drug administration was 10 mM bicarbonate. One hour post injection rats were anesthetized with halothane and a liver biopsy (approx. 1 g) was taken as well as a blood sample (2 ml) from the posterior vena cava. A heparin flushed syringe and needle was used for blood collection. The liver sample was immediately homogenized in ice-cold 10% perchloric acid (3 mL), centrifuged, and the supernatant neutralized with ⅓rd volume of 3 M KOH/3 M KH2CO3. Following centrifugation and filtration, 50 μl of the neutralized extract was ana lyzed for FBPase inhibitor content by HPLC. A reverse phase YMC ODS AQ column ([…]) was used and eluted with a gradient from 10 mM sodium phosphate pH 5.5 to 75% acetonitrile. Absorbance was monitored at 310 nm. […] The methanolic extract was clarified by centrifugation and filtration and then analyzed by HPLC as described above.

[2] = test system: streptozotocin-treated Sprague-Dawley rats; assay: Blood glucose lowering in the streptozotocin-treated rat; format: in vivo
Procedure: Diabetes was induced in male Sprague-Dawley rats (250-300 g) by intraperitoneal injection of 55 mg/kg streptozotocin (Sigma Chemical Co.). Six days later, 24 animals were selected with fed blood glucose values (8 am) between 350 and 600 mg/dL and divided into two statistically equivalent groups. Blood glucose was measured in blood obtained from a tall vein nick by means of a HemoCue Inc. (Mission Viejo, Calif.) glucose analyzer. […] Food was removed from the animals. Blood glucose was measured in each animal four hours after dosing, and a second dose of drug or saline was then administered. Four hours later, a final blood glucose measurement was made.

[3] = test system: 18-hour fasted Sprague Dawley rats; assay: Glucose lowering following oral administration; format: in vivo, rat
Procedure: The compound was prepared in deionized water, adjusted to neutrality with sodium hydroxide, and brought into solution by sonication prior to administration. Blood glucose was measured immediately prior to dosing, and at 1 hour intervals thereafter. Blood samples were obtained from the tail vein, and measurements made by means of a Hemocue glucose analyzer (Hemocue Inc, Mission Viejo, Calif.) used according to the manufacturer's instructions. […] The average glucose lowering in the four responding animals was 62±8.6% relative to saline-treated controls at the 1 hour time point.

hlFBPase = target: T1, hlFBPase (Homo sapiens, UniProt P09467); assay: AMP site binding (displacement of radiolabeled AMP)
T1 construct: made in house; host or cells: E. coli BL21
T1 sequence (P09467 2-338 limits assumed): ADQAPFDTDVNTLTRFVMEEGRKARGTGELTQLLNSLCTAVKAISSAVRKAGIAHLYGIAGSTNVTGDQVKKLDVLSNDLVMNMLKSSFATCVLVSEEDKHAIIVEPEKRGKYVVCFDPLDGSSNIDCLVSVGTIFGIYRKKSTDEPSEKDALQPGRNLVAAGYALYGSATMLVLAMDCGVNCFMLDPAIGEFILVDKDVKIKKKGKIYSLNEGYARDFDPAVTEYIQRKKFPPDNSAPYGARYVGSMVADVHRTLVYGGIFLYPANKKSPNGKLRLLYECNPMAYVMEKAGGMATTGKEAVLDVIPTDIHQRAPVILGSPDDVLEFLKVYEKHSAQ
Procedure: To determine whether compounds bind to the allosteric AMP binding site of hlFBPase, the enzyme was incubated with radiolabeled AMP in the presence of a range of test compound concentrations. The reaction mixtures consisted of […] ^3H-AMP (54 mCi/mmol) and […] test compound in 25 mM Tris-HCl, pH 7.4, 100 mM KCl and 1 mM MgCl2. 1.45 mg of homogeneous FBPase (±1 nmole) was added last. After a 1 minute incubation, AMP bound to FBPase was separated from unbound AMP by means of a centrifugal ultrafiltration unit (“Ultrafree-MC”, Millipore) used according to the instructions of the manufacturer. The radioactivity in aliquots (100 μL) of the upper compartment of the unit (the retentate, which contrains enzyme and label) and the lower compartment (the filtrate, which contains unbound label) were quantified using a Beckman liquid scintillation counter. The amount of AMP bound to the enzyme was estimated by comparing the counts in the filtrate (the unbound label) to the total counts in the retentate.

Row | Structure (SMILES) | pIC50 (rat hepatocytes; Hepatocyte, Example F, FIG. 5, read-out: IC50 glucose production from lactate/pyruvate) | accumulation of fructose 1,6-bisphosphate (rat hepatocytes; result in words) | liver level [1] [nmol/g] | plasma level [1] [µM] | Blood glucose, mg/dl T = 8h ([2]; 100 mg/kg intraperitoneally at 0 and 4 h, food removed, 8 hours after the initial dose) [mg/dL] | Blood glucose, mg/dl T = 0h ([2]; before dosing, streptozotocin-treated rats) [mg/dL] | blood glucose effect, oral 30 mg/kg ([3]; oral gavage 30 mg/kg, 18-hour fasted rats) | blood glucose effect, oral 100 mg/kg ([3]; oral gavage 100 mg/kg, 18-hour fasted rats) | average glucose lowering in the four responding animals ([3]; oral gavage 250 mg/kg, relative to saline-treated controls, 1 hour time point) [%] | animals with profound hypoglycemia ([3]; oral gavage 250 mg/kg, within 1 hour of administration) | pEC50 (hlFBPase; displacement of 3H-AMP from hlFBPase, read-out: ED50 for AMP displacement) | displacement of AMP from human liver FBPase (FIG. 3) (hlFBPase; result in words)
1 | CCc1cc(F)c(N)c2nc(-c3ccc(P(=O)(O)O)o3)n(CC(C)C)c12 [Compound 12.64] | ~5.52 | dose-dependent accumulation of fructose 1,6 bisphosphate | 90 | 85 | 271 ± 29 | 488 ± 16 | without effect | without effect | 62±8.6 | 4 out of 5 | – | –
2 | CCn1c(-c2ccc(P(=O)(O)O)o2)nc2c(N)cccc21 [Compound 12.1, 4-Amino-1-ethyl-2-[2-(5-phosphono)furanyl]benzimidazole] | – | – | – | – | – | – | – | – | – | – | 4.30 | displaced AMP from human liver FBPase in a dose dependent manner

Reference: patent US6399782B1, “Benzimidazole inhibitors of fructose 1,6-bisphosphatase” (Metabasis Therapeutics, Inc., priority 1997, dated 2002)
